SMILES strings stand for the structures.

One assay has as its system W2 strain. Briefly: parasite proliferation assay in infected red blood cells (SYBR Green I), W2 strain. In kind it is cell-based, Plasmodium falciparum. To be noted: Plasmodium falciparum, Erythrocyte. The text has this:
Compounds of the invention can be assayed to measure their capacity to inhibit proliferation of parasitemia in infected red blood cells. The proliferation is quantified by the addition of SYBR Green I (INVITROGEN)® dye which has a high affinity for double stranded DNA.

In another assay the test system is 3D7 P. falciparum strain. Briefly: parasite proliferation assay in infected red blood cells (SYBR Green I). To be noted: Plasmodium falciparum, 3D7, Erythrocyte, 3D7 strain; read-out: EC50 3D7 strain. Type of assay: cell-based, Plasmodium falciparum. Put shortly: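 P. falciparum 3D7 grown in O+ human erythrocytes to 3–8% parasitemia and exposed to compounds. Proliferation read as the increase in parasite DNA. Detection used SYBR Green I in saponin/triton-X/EDTA lysis buffer, with overnight lysis at room temperature.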

For orientation: EC50 means the concentration giving half of the maximal effect. Consider `CC1(C)c2nc(-c3ccc(F)cc3)c(Nc3cccc(C(F)(F)F)c3)n2CCN1C(=O)C(F)(F)F` [Compound 528], for which the EC50 in the assay on W2 strain turned out to be 121 nM; in the assay with 3D7 P. falciparum strain it was 150 nM.

With `Cc1ccc(Nc2c(-c3ccc(F)cc3)nc3n2CCN(C(=O)C(C)(C)N)C3(C)C)cc1` [Compound 529, 2-amino-1-(2-(4-fluorophenyl)-8,8-dimethyl-3-(p-tolylamino)-5,6-dihydroimidazo[1,2-a]pyrazin-7(8H)-yl)-2-methylpropan-1-one], the EC50 with W2 strain was 4 nM; in the assay on 3D7 P. falciparum strain it was 2 nM.

Turning to `CC1(C)c2nc(-c3ccc(F)cc3)c(NC3CCCCC3)n2CCN1C(=O)CN` [Compound 531], the EC50 with W2 strain came out at 57 nM; with 3D7 P. falciparum strain it was 40 nM.

`Cc1ccc(Nc2c(-c3ccc(F)cc3)nc3n2CCN(C(=O)CN)C3(C)C)cc1Cl` [Compound 532]: the EC50 with W2 strain was 9 nM; in the assay with 3D7 P. falciparum strain it was 20 nM.

As for `Cc1ccc(Nc2c(-c3ccc(F)cc3)nc3n2CCN(C(=O)CN)C3(C)C)cc1F` [Compound 533], the figures for the EC50 with W2 strain and with 3D7 P. falciparum strain were 22 nM and 30 nM, respectively.

Regarding `CC1(C)c2nc(-c3ccc(F)cc3)c(Nc3ccc(C#N)c(Cl)c3)n2CCN1C(=O)CN` [Compound 534], the concentration for a half-maximal effect (EC50) in the assay on W2 strain worked out at 19 nM; in the assay on 3D7 P. falciparum strain, 40 nM.

Consider `Cc1ccc(Nc2c(-c3ccc(F)cc3)nc3n2CC(=O)NC3(C)C)cc1C#N` [Compound 535], for which the EC50 in the assay on W2 strain came out at 2350 nM; in the assay with 3D7 P. falciparum strain, 2720 nM.

Turning to `CN1CC(C)(C)n2c(nc(-c3ccc(F)cc3)c2Nc2ccc(F)cc2)C1(C)C` [Compound 536], the EC50 in the assay on W2 strain was found to be 5930 nM; with 3D7 P. falciparum strain, 6400 nM.

`CC1(C)NC(=O)Cn2c1nc(-c1ccc(F)cc1)c2Nc1ccc(F)c(C#N)c1` [Compound 537]: the EC50 in the assay on W2 strain worked out at 8340 nM; in the assay on 3D7 P. falciparum strain, 11900 nM.

Turning to `Cc1ccc(Nc2c(-c3ccc(F)cc3)nc3n2C(C)(C)C(=O)N(C)C3(C)C)cc1` [Compound 538], the EC50 with W2 strain is 8060 nM; in the assay with 3D7 P. falciparum strain, 7670 nM.

On to `Cc1ccc(Nc2c(-c3ccc(F)cc3)nc3n2C(C)(C)CN(C)C3(C)C)cc1` [Compound 539], for which the figures for the EC50 with W2 strain and in the assay on 3D7 P. falciparum strain were 3120 nM and 3060 nM, respectively.

As for `CC(C)(C)OC(=O)NCC(=O)N1CCn2cc(-c3ccc(F)cc3)nc2C1` [Compound 540, tert-butyl 2-(2-(4-fluorophenyl)-5,6-dihydroimidazo[1,2-a]pyrazin-7(8H)-yl)-2-oxoethylcarbamate], the results for the EC50 with W2 strain and in the assay on 3D7 P. falciparum strain were 9810 nM and 8420 nM, respectively.

Regarding `Cc1ccc(Nc2c(-c3ccc(F)cc3)nc3n2CCNC3(C)C)cc1F` [Compound 541], the EC50 in the assay with W2 strain and with 3D7 P. falciparum strain was 10 nM in each case.

Consider `CC1(C)NC(=O)Cn2c1nc(-c1ccc(F)cc1)c2Nc1cc(F)c(F)c(F)c1` [Compound 543], for which the EC50 with W2 strain amounted to 305 nM; in the assay on 3D7 P. falciparum strain, 170 nM.

For the compound `Cc1cc(Nc2c(-c3ccc(F)cc3)nc3n2CC(=O)NC3(C)C)ccc1F` [Compound 544], the concentration giving a half-maximal response (EC50) in the assay with W2 strain turned out to be 37 nM; with 3D7 P. falciparum strain, 20 nM.

Turning to `COc1ccc(Nc2c(-c3ccc(F)cc3)nc3n2CC(=O)NC3(C)C)cn1` [Compound 545], the EC50 with W2 strain was 5620 nM; with 3D7 P. falciparum strain, 3380 nM.

On to `Cc1ccc(Nc2c(-c3ccc(F)cc3)nc3n2CC(=O)NC3(C)C)cc1Cl` [Compound 546], for which the EC50 worked out at 52 nM in the assay on W2 strain and 30 nM in the assay with 3D7 P. falciparum strain.

For the compound `Cc1ccnc(Nc2c(-c3ccc(F)cc3)nc3n2CC(=O)NC3(C)C)c1` [Compound 547], the EC50 turned out to be 4660 nM with W2 strain and 1820 nM in the assay with 3D7 P. falciparum strain.

Regarding `CC1(C)NC(=O)Cn2c1nc(-c1ccc(F)cc1)c2Nc1ccc(C#N)c(Cl)c1` [Compound 548], the EC50 in the assay on W2 strain worked out at 5550 nM; in the assay on 3D7 P. falciparum strain it was 2630 nM.

For `CC(C)[C@H]1NC(=O)Cn2c1nc(-c1ccc(F)cc1)c2Nc1ccc(Cl)cc1` [Compound 549], the EC50 was 3260 nM in the assay on W2 strain and 1700 nM with 3D7 P. falciparum strain.

`CC(C)[C@H]1NC(=O)Cn2c1nc(-c1ccc(F)cc1)c2Nc1ccc(Cl)c(F)c1` [Compound 550]: the figures for the EC50 in the assay with W2 strain and in the assay on 3D7 P. falciparum strain were 3600 nM and 2560 nM, respectively.

On to `CC1(C)NC(=O)Cn2c1nc(-c1ccc(F)c(F)c1)c2Nc1ccc(Cl)c(F)c1` [Compound 551], for which the figures for the EC50 in the assay on W2 strain and in the assay on 3D7 P. falciparum strain were 98 nM and 40 nM, respectively.

On to `CC1(C)c2nc(-c3ccc(F)cc3)c(Nc3cccc(NS(C)(=O)=O)c3)n2CCN1C(=O)CN` [Compound 552], for which the EC50 came out at 4480 nM with W2 strain and 2520 nM in the assay with 3D7 P. falciparum strain.

On to `CNC(=O)c1cccc(Nc2c(-c3ccc(F)cc3)nc3n2CCN(C(=O)CN)C3(C)C)c1` [Compound 553], for which the concentration for a half-maximal effect (EC50) in the assay on W2 strain amounted to 4660 nM; in the assay with 3D7 P. falciparum strain, 2370 nM.

Consider `CC1(C)NCCn2c1nc(-c1ccc(F)cc1)c2Nc1cc(F)c(F)c(F)c1` [Compound 555], for which the EC50 with W2 strain came to 16 nM; in the assay on 3D7 P. falciparum strain, 10 nM.

Take `CN1Cc2nc(-c3ccc(F)cc3)c(Nc3ccc(Cl)cc3)n2CC1(C)C` [Compound 556, N-(4-chlorophenyl)-2-(4-fluorophenyl)-6,6,7-trimethyl-5,6,7,8-tetrahydroimidazo[1,2-a]pyrazin-3-amine]: the figures for the 50% effective concentration (EC50) in the assay with W2 strain and in the assay with 3D7 P. falciparum strain were 75 nM and 60 nM, respectively.

Consider `CC1(C)Cn2c(nc(-c3ccc(F)cc3)c2Nc2ccc(Cl)cc2)CN1C(=O)CN` [Compound 557], for which the EC50 in the assay with W2 strain and in the assay with 3D7 P. falciparum strain was 20 nM in each case.

On to `CC1(C)Cn2c(nc(-c3ccc(F)cc3)c2Nc2ccc(Cl)cc2)CN1` [Compound 558], for which the EC50 in the assay with W2 strain came out at 89 nM; in the assay with 3D7 P. falciparum strain it was 60 nM.

For `C[C@@H]1NC(=O)Cn2c1nc(-c1ccc(F)cc1)c2Nc1ccc(Cl)c(F)c1` [Compound 559], the EC50 is 642 nM with W2 strain and 530 nM in the assay on 3D7 P. falciparum strain.

`Cc1cc(Nc2c(-c3ccc(F)cc3)nc3n2CC(=O)NC3(C)C)nn1C` [Compound 560]: the figures for the EC50 with W2 strain and in the assay on 3D7 P. falciparum strain were 5220 nM and 3610 nM, respectively.

On to `CCN1CCCC1CNc1c(-c2ccc(F)cc2)nc2n1CC(=O)NC2(C)C` (centres unmarked) [Compound 561], for which the EC50 with W2 strain stood at 4400 nM; in the assay on 3D7 P. falciparum strain, 7170 nM.

With `CC(C)[C@@H]1NC(=O)Cn2c1nc(-c1ccc(F)cc1)c2Nc1ccc(Cl)c(F)c1` [Compound 562], the EC50 in the assay with W2 strain was determined as 6290 nM; with 3D7 P. falciparum strain it was 4820 nM.

`C[C@@H]1NC(=O)Cn2c1nc(-c1ccc(F)cc1)c2Nc1ccc(Cl)cc1` [Compound 563]: the half-maximal effective concentration (EC50) with W2 strain was determined as 445 nM; in the assay on 3D7 P. falciparum strain, 310 nM.

Consider `C[C@H]1NC(=O)Cn2c1nc(-c1ccc(F)cc1)c2Nc1ccc(Cl)c(F)c1` [Compound 564], for which the half-maximal effective concentration (EC50) in the assay on W2 strain is 359 nM; in the assay on 3D7 P. falciparum strain, 250 nM.

For `C[C@H]1NC(=O)Cn2c1nc(-c1ccc(F)cc1)c2Nc1ccc(Cl)cc1` [Compound 565], the EC50 in the assay with W2 strain was 105 nM; with 3D7 P. falciparum strain, 70 nM.

As to `CC1(C)NC(=O)Cn2c1nc(-c1ccc(F)cc1)c2Nc1cnc2ccccc2c1` [Compound 566], the EC50 in the assay with W2 strain was 4460 nM; with 3D7 P. falciparum strain it was 5480 nM.

On to `CC1(C)NC(=O)Cn2c1nc(-c1ccc(F)cc1)c2Nc1ccc(S(C)(=O)=O)cc1` [Compound 567], for which the values for the EC50 in the assay on W2 strain and in the assay with 3D7 P. falciparum strain were 8460 nM and 6460 nM, respectively.

For the compound `CN1CCN(c2ccc(Nc3c(-c4ccc(F)cc4)nc4n3CC(=O)NC4(C)C)cc2)CC1` [Compound 568], the concentration giving a half-maximal response (EC50) in the assay on W2 strain was > 11300 nM; in the assay with 3D7 P. falciparum strain, > 8040 nM.

On to `CN1CCN(Cc2cccc(Nc3c(-c4ccc(F)cc4)nc4n3CC(=O)NC4(C)C)c2)CC1` [Compound 569], for which the EC50 was determined as 7920 nM in the assay with W2 strain and 9270 nM with 3D7 P. falciparum strain.

On to `CC1(C)c2nc(-c3ccc(F)cc3)c(Nc3ccc(S(C)(=O)=O)cc3)n2CCN1C(=O)CN` [Compound 570], for which the concentration giving a half-maximal response (EC50) stood at 5560 nM in the assay on W2 strain and 5680 nM in the assay with 3D7 P. falciparum strain.

For `CN1CCN(c2ccc(Nc3c(-c4ccc(F)cc4)nc4n3CCN(C(=O)CN)C4(C)C)cc2)CC1` [Compound 571], the EC50 in the assay on W2 strain turned out to be 7480 nM; with 3D7 P. falciparum strain it was 6200 nM.

In the case of `CN1CCN(c2ccc(Nc3c(-c4ccc(F)cc4)nc4n3CCNC4(C)C)cc2)CC1` [Compound 572], the EC50 with W2 strain was found to be 8730 nM; in the assay with 3D7 P. falciparum strain it was 11200 nM.

As to `Cc1ccc(Nc2c(-c3ccc(F)cc3)nc3n2CC(C)(C)N(C(=O)CN)C3)cc1` [Compound 573], the EC50 in the assay with W2 strain stood at 55 nM; in the assay with 3D7 P. falciparum strain, 40 nM.

Consider `CC1(C)Cn2c(nc(-c3ccc(F)cc3)c2Nc2ccc(F)cc2)CN1C(=O)CN` [Compound 574], for which the EC50 in the assay on W2 strain turned out to be 111 nM; in the assay on 3D7 P. falciparum strain, 80 nM.

With `CC1(C)Cn2c(nc(-c3ccc(F)cc3)c2Nc2ccc(F)c(F)c2)CN1C(=O)CN` [Compound 575], the EC50 was 81 nM in the assay with W2 strain and 80 nM in the assay with 3D7 P. falciparum strain.

Turning to `CC1(C)Cn2c(nc(-c3ccc(F)cc3)c2Nc2ccc(Cl)c(F)c2)CN1C(=O)CN` [Compound 576], the results for the EC50 with W2 strain and with 3D7 P. falciparum strain were 234 nM and 200 nM, respectively.

As to `CC1(C)Cn2c(nc(-c3ccc(F)cc3)c2Nc2ccc(C#N)c(F)c2)CN1C(=O)CN` [Compound 577], the concentration giving a half-maximal response (EC50) was 611 nM in the assay on W2 strain and 630 nM in the assay on 3D7 P. falciparum strain.

Regarding `Cc1ccc(Nc2c(-c3ccc(F)cc3)nc3n2CC(C)(C)NC3)cc1` [Compound 578], the figures for the 50% effective concentration (EC50) in the assay on W2 strain and in the assay on 3D7 P. falciparum strain were 339 nM and 250 nM, respectively.

With `CC1(C)Cn2c(nc(-c3ccc(F)cc3)c2Nc2ccc(F)cc2)CN1` [Compound 579], the figures for the 50% effective concentration (EC50) with W2 strain and in the assay on 3D7 P. falciparum strain were 146 nM and 180 nM, respectively.

In the case of `CC1(C)Cn2c(nc(-c3ccc(F)cc3)c2Nc2ccc(F)c(F)c2)CN1` [Compound 580], the EC50 in the assay on W2 strain came to 169 nM; in the assay with 3D7 P. falciparum strain, 150 nM.

Turning to `CC1(C)Cn2c(nc(-c3ccc(F)cc3)c2Nc2ccc(C#N)c(F)c2)CN1` [Compound 581], the figures for the concentration giving a half-maximal response (EC50) in the assay on W2 strain and with 3D7 P. falciparum strain were 668 nM and 650 nM, respectively.

On to `COc1ccc(CN2Cc3nc(-c4cccc(F)c4)c(Nc4ccc(C)cc4)n3C(C)(C)C2)cc1` [Compound 582], for which the EC50 with W2 strain was determined as 5920 nM; in the assay on 3D7 P. falciparum strain, 5560 nM.

Source of the values: US9469645B2, “Compounds and compositions for the treatment of parasitic diseases” (Novartis AG, priority 2009, dated 2016).
